{"source": "patent US4410514A", "about": "“GnRH Agonists” (The Salk Institute for Biological Studies, priority 1982, dated 1983)", "system": "release of LH by the anterior pituitary in fish", "test": "in vivo salmon assay, radioimmunoassay for LH level in blood", "settings": "salmon of about 2 kg, about 10 μg injected per fish, blood taken about 2 hours after injection, same amount of mammalian GnRH as comparator", "description": "The peptide is assayed in vivo using salmon having an average weight of about 2 kg, and each fish is injected with about 10 μg. Additional fish are injected with the same amount of mammalian GnRH. Both sets are then compared with controls. About 2 hours following injection, the salmon are sacrificed, and the blood withdrawn for specific radioimmunoassay for LH level.", "note": "Where a SMILES comes first, the peptide text is derived from it. [ ]: non-standard residue; d: D form. pGlu = O=C1CC[C@@H](C(=O)O)N1"}
{"smiles": "CCNC(=O)[C@@H]1CCCN1C(=O)[C@H](CC(C)C)NC(=O)[C@H](Cc1c[nH]c2ccccc12)NC(=O)[C@@H](C)NC(=O)[C@H](Cc1ccc(O)cc1)NC(=O)[C@H](CO)NC(=O)[C@H](Cc1c[nH]c2ccccc12)NC(=O)[C@H](Cc1c[nH]cn1)NC(=O)[C@@H]1CCC(=O)N1", "note": "[Peptide 1, pGlu--His--Trp--Ser--Tyr--D--Ala--Trp--Leu--Pro--NHCH2 CH3] ([pGlu]HWSY[dA]WLP-NHEt)", "values": [{"measurement": "potency in causing the release of LH by the anterior pituitary, compared with mammalian GnRH", "result": "substantially more potent than mammalian GnRH"}]}
